These results are taken from patent publication US20250352505A1, “COMPOSITIONS AND METHODS OF TREATING RESPIRATORY SYNCYTIAL VIRUS” (University of South Florida, priority 2023, published 2025).

Data set [1] has as its system panel of tumor cell lines. The settings on record: cited from earlier work.
In data set [2] the test system is recombinant RSV encoding Renilla luciferase (rA2-Rluc). Nature of the data set: RSV antiviral assay (Renilla luciferase reporter RSV in A549 cells). It counts as cell-based, respiratory syncytial virus. Conditions: for activity against RSV (in words): inhibition of RSV gene expression / viral transcription; for IC50: rA2-Rluc in A549 cells, 24 h, luciferase activity, read-out: IC50 against RSV. The method, then:
A549 (CCL-185, ATCC) cells were seeded at 1.6×10^4 cells in 100 μl of 5% FBS/1× penicillin-streptomycin/F12 medium per well in 96-well uClear® black plates with clear bottom (Greiner 655090). Cells were infected with 400 PFU/well of a recombinant RSV encoding Renilla luciferase as an additional transcription unit (rA2-Rluc^22) in total volume of 50 μL/well and allowed to adsorb for 1 h. Purified compounds were serially diluted two-fold in triplicate and 50 μL/well of the diluted extracts were added to the infected cells. After further incubation at 37° C. and 5% CO2 for 24 h, the supernatants were removed and cells were lysed using Renilla lysis buffer (Promega). Luciferase activity was measured with the Renilla Luciferase reagent (Promega) and BioTek Synergy Mx microplate luminometer using Gen5 version 2.00.18 software. RSV antiviral effect for test samples was determined by normalizing to DMSO-treated control samples and multiplying by 100 to obtain percent of control. Statistical analysis was performed using GraphPad Prism software version 9.4.1.
In general terms: Reporter assays use an easily measured gene product as a stand-in for the process of interest.

The next data set relates to ESKAPE pathogens. Nature of the data set: Antibacterial screening. Conditions: ESKAPE pathogens / bacterial screens. In kind it is cell-based.
The next data set deals with Candida strains. Nature of the data set: Antifungal screening. The settings on record: several Candida strains / fungal screens. In kind it is cell-based.
The test system of the next data set is HIV gene expression. The settings on record: cited from earlier work.
The next data set concerns MRSA. Conditions: cited from earlier work.

19-episuberitenone B: in data set [1], the “cytotoxicity against a panel of tumor cell lines” value is given as “weak cytotoxicity”.
For `CC(=O)OC1CC2(C)C=C3C4CC(=O)C(C)(CC4O)C3CC2C2(C)CCCC(C)(C)C12` (stereo not shown) [Compound 1, Neosuberitenone A], in data set [2] (25 μg/mL), the “viral inhibitory effects at 25 μg/mL” value was “did not show any viral inhibitory effects”.
For the molecule `CC(=O)OC1CC2(C)C(O)C(C3CC(=O)C(C)=CC3O)=CCC2C2(C)CCCC(C)(C)C12` (stereo not shown) [Compound 3, Suberitenone F], in the data set on ESKAPE pathogens, the antibacterial activity result was “inactive”. Further, in data set [2], the “activity against RSV (in words)” value was “active”. In addition, the antifungal activity result in the data set with Candida strains is “inactive”.
What is called IC50 is the concentration that gives 50% inhibition. Turning to `CC(=O)OC1CC2(C)C=C(C3CC(=O)C(C)=CC3O)CCC2C2(C)CCCC(C)(C)C12` (stereo not shown) [Compound 10, suberitenone A], the antibacterial activity result in the data set with ESKAPE pathogens was “inactive”. Moreover, in data set [2], the “activity against RSV (in words)” value is listed as “active” and the IC50 was determined as 7.9 µM. Further, the antifungal activity entry in the data set with Candida strains was “inactive”.
`CC(=O)OC1CC2(C)CC(O)(C3CC(=O)C(C)=CC3O)CCC2C2(C)CCCC(C)(C)C12` (stereo not shown) [Compound 11, suberitenone B]: the antibacterial activity result in the data set with ESKAPE pathogens is “inactive”. For the same molecule, in data set [2], the “activity against RSV (in words)” value is reported as “active” and the IC50 is 3.5 µM. Moreover, in the data set with Candida strains, the antifungal activity entry is “inactive”.
Turning to anvilone A, the HIV gene expression result in the data set with HIV gene expression was “turned on HIV gene expression”.
For the molecule isosuberitenone B, the “cytotoxicity against a panel of tumor cell lines” value in data set [1] is reported as “weak cytotoxicity”.
As for oxaspirosuberitenone, the “antibacterial activity against MRSA” value in the data set with MRSA is recorded as “mild antibacterial activity”.
